Experimental data as given in patent publication US11389569B2, “Biodegradable, porous, thermally responsive injectable hydrogel as soft tissue defect filler” (University of Pittsburgh—Of the Commonwealth System of …, priority 2017, dated 2022).

Experiments:
SMCs = experiment: Cytotoxicity and proliferation of SMCs (mitochondrial activity assay); assay type: cell-based; conditions: dissolved mannitol
[1] = Mannitol particle size, initially and after mixing with VP10 hydrogel solution; assay type: physicochemical
Description: All chemicals were purchased from Sigma-Aldrich unless otherwise stated. N-isopropylacrylamide (NIPAAm) was purified by recrystallization from hexane and vacuum-dried. 2-Hydroxyethyl methacrylate (HEMA) was purified by vacuum distillation. Vinylpyrrolidone (VP), lactide, benzoyl peroxide (BPO), sodium methoxide (NaOCH3), methacryloyl chloride, methacrylic acid (MAA) and other solvents were used as received. D-mannitol particles were sieved to obtain the portion between 170 and 230 meshes.

## OC[C@@H](O)[C@@H](O)[C@H](O)[C@H](O)CO [mannitol, D-mannitol]
SMCs
  concentration up to which no cytotoxicity was shown: up to 100 mM
[1]; mixed with VP10 hydrogel solution for 10 min
  particle size change after mixing with hydrogel solution: did not decrease significantly
[1]; sieved, 170-230 mesh
  initial size of sieved mannitol particles: 68.0 μm
